Experimental data: patent US9795649B2, “Sesquiterpenoid-based compounds, extracts of Cyperus rotundus comprising the same, and use thereof” (RESEARCH & BUSINESS FOUNDATION SUNGKYUNKWAN UNIVERSITY, priority 2013, dated 2017)
Entries after “also recorded” stand apart in the source; their conditions may differ.

Legend:
Format in all cases: cell-based
MCF-7-bus cells = assay: E-screen assay for estrogenic activity; conditions: isolated compounds; FIGS. 4A and 4B
Text: E-screen assay is a method of measuring estrogenic action of a substance, i.e., a method of utilizing the growth effect of MCF-7-bus, a breast cancer cell line with endogenous estrogen receptors (ER) expressed therein, which is stimulated by an estrogenic substance. In the present invention, estrogenic activities of the methanol extract and the organic solvent fraction thereof, the ethanol extract and the column fraction thereof were examined by E-screen assay.
(§1) In detail, MCF-7-bus cells were cultured in a 5% FBS DMEM medium and seeded in a 48-well plate at a density of 5×10^3 cells/well. The cells were cultured in a CO2 incubator at 37° C. for 48 hours, and then washed with a phenol red-free medium twice. The test materials were diluted with 5% CD-FBS DMEM at different concentrations, and then cells were treated therewith. The concentration of the solvent was in principle adjusted to 0.1%. After culturing for 144 hours (6 days), cells were fixed to the plate with TCA (Trichloroacetic acid) solution. The cells thus fixed were stained with SRB (Sulforhodamin B) dye, and the SRB dye remaining in the plate was removed by washing with acetic acid. The bound SRB dye was eluted from the cells with tris-base solution, and absorbance at 490 nm was measured to calculate the amount of SRB dye. Finally, estrogenic actions of the test materials were confirmed.

MCF-7 bus cells [1] = assay: E-screen assay with co-treatment of tamoxifen (estrogen receptor antagonist); conditions: tamoxifen 10^−6M; FIGS. 5A and 5B
Protocol: as §1
In detail, Tamoxifen is a representative estrogen receptor antagonist, and in this experiment, in order to examine whether the test materials show the estrogen receptor-mediated estrogenic actions, the test materials were mixed with tamoxifen (10^−6M) and MCF-7 bus cells were treated with the mixture to perform e-screen assay, and the results are shown in FIG. 5.

MCF-7 bus cells [2] = assay: E-screen assay with co-treatment of high or low concentration of estradiol (SERM function); conditions: for change in estrogenic activity by co-treatment of high concentration of estrogen: estradiol 10^−7M, FIGS. 6A and 6B; for change in estrogenic activity by co-treatment of low concentration of estrogen: estradiol 10^−13M, FIGS. 7A and 7B
Protocol: as §1
In detail, to examine whether the test materials function as an antagonist of estrogen at excessively high level of estrogen in the body, the test materials were mixed with high concentration of estradiol (10^−7M) and MCF-7 bus cells were treated with the mixture. To examine whether the test materials function as an agonist of estrogen at estrogen deficiency in the body, the test materials were mixed with a low concentration of estradiol (10^−13M) and MCF-7 bus cells were treated with the mixture. Then, e-screen assay was performed.

RBL-2H3 cell line = assay: β-Hexosaminidase release assay for anti-allergic activity; conditions: Rattus norvegicus, 50 μg/ml, Mean ± SD, read-out: Degranulation-inhibitory activity (%, Mean ± SD)
Protocol: β-Hexosaminidase release assay is an experiment for examining anti-allergic activity by activating the RBL-2H3 cell line with an activating factor, treating the activated cells with an antigen, and then measuring the amount of released β-hexosaminidase to examine inhibitory effect on degranulation, and this assay was performed as follows.
In detail, the RBL-2H3 cell line was cultured in minimum essential media (hereinafter, referred to as EMEM) containing Eagle's salt supplemented with 15% fetal bovine serum and L-glutamine at 37° C. in a 5% CO2 incubator. Adherent cells were suspended by Trypsin-EDTA, and separated, recovered for use in the experiment. The RBL-2H3 cell line was activated with an activating factor (Dinitrophenol-conjugated human serum albumin, (DNP-HSA)-specific IgE), and then the activated cells were treated with 200 ng/mL of an antigen (DNP-HSA), and 0, 6.25, 12.5, 25, 50, or 100 μg/mL of the fraction of the extract of Cyperus rotundus was treated, respectively. Cells were incubated for 30 minutes. As a positive control, 50 μg/mL of ketotifen was used. Thereafter, the amount of β-hexosaminidase released to the medium was measured using a microplate spectrophotometer. Inhibition of β-hexosaminidase release means prevention of degranulation of immune cells.

| Compound | estrogenic activity (MCF-7-bus cells) | estrogenic activity by co-treatment with tamoxifen (MCF-7 bus cells [1]) | change in estrogenic activity by co-treatment of high concentration of estrogen (MCF-7 bus cells [2]) | change in estrogenic activity by co-treatment of low concentration of estrogen (MCF-7 bus cells [2]) | inhibition at 50 µg/mL (RBL-2H3 cell line) |
| --- | --- | --- | --- | --- | --- |
| C=C(C)[C@@H]1CC[C@@]2(C)CCC(=O)[C@@]3(C)O[C@@]23C1 [Compound [1], 4α,5α-oxidoeudesm-11-en-3-one] | excellent estrogenic activity; also recorded: high estrogenic activity | remarkably reduced activities | function as an estrogen inhibitor | function as an estrogen supplement | – |
| C=C(C)C1CCC2(C)CCC(OC)C(C)=C2C1 (stereo not drawn) [Compound [6], 3α-methoxyeudesma-4,11-diene] | high estrogenic activity | remarkably reduced activities | function as an estrogen inhibitor | function as an estrogen supplement | 41.7 ± 5.4% |
| CN1CCC(=C2c3ccccc3CC(=O)c3sccc32)CC1 [Ketotifen, ketotifen, reference compound] | – | – | – | – | 50.5 ± 2.28% |
| cyper-11-ene-3,4-dione [Compound [2]] | high estrogenic activity | remarkably reduced activities | function as an estrogen inhibitor | function as an estrogen supplement | – |
